Source: US11634447B2 (priority 2012, dated 2023)

Tested on: bacterial strain LF82 binding to the glycoprotein BSA-(Mannose)3
Test: Bacterial Binding Assay (BBA)
Type: cell-based, Escherichia coli
Conditions: read-out: Bacterial Binding Assay IC50, LF82/Luciferase strain binding to BSA-(Man)3 coated plates, luminescence
Source text: The purpose of the Bacterial Binding Assay (BBA) is to determine the inhibition activity of
selective FimH antagonists on the bacterial strain LF82 binding to the glycoprotein BSA-(Mannose)3.
Below is a list of the Materials used to run the BBA are described below. • 1. LB broth: Supplier: Gibco, #10855 • 2. D-PBS: Supplier: Wisent, #311-425-CL • 3. LB agar plates • 4. 96-well black plate (high binding): Supplier: Costar, #3925 • 5. TopSeal™-A adhesive sealing films; Supplier PerkinElmer, #6005185 • 6. Carbonate-bicarbonate buffer pH 9.6 tablets, Supplier: Medicago, #09-8922-24 • 7. Water, Supplier: Gibco, #15230-162 • 8. Bovine serum albumin (BSA): Supplier: Sigma, #A-7888 • 9. (Man)3-BSA (α1-3, α1-6 Mannotriose-BSA, 1 mg), V-Labs, #NGP1336, lot #HGDX37-169-1 • 10. Tween 20: Supplier: Sigma, #P9416 • 11. Bright-Glo Luciferase Assay System: Supplier: Promega, #E2610 • 12. LF82/Luciferase strain: Invasive ability of an Escherichia coli strain isolated from the ileal mucosa of a patient with Crohn ? disease. Boudeau J, Glasser A L, Masseret E, Joly B, Darfeuille-Michaud A, Infect Immun. 1999, 67(9), 4499-509
Solutions and buffers used to run the BBA are described below. • 1. 0.04M carbonate-bicarbonate buffer (coating buffer) • 2. 40 μg/mL BSA-(Man)3: Dissolve 1 mg of (Man)3-BSA in 25 mL of water. • 3. 4000 μg/mL BSA • 4. 40 μg/mL BSA • 5. 1 μg/mL BSA-(Man)3: 150 μL of 40 μg/mL BSA-(Man)3+5.85 mL of 40 μg/mL BSA • 6. 0.5 μg/mL BSA-(Man)3 in 0.02M carbonate-bicarbonate buffer. • 7. 20 μg/mL BSA in 0.02M carbonate-bicarbonate buffer • 8. Blocking buffer (2% BSA/DPBS): 1 g of BSA in 50 mL D-PBS • 9. 2× binding buffer (0.2% BSA/D-PBS): 5 mL of blocking buffer+45 mL D-PBS. • 10. Washing buffer (D-PBS/0.01% Tween 20): 10 μL of Tween 20 in 100 mL D-PBS. • 11. 1× Bright-Glo Luciferase substrate: Dilute 1:1 the Bright-Glo Luciferase Assay System with D-PBS The experimental protocol to run the BBA is described below.
Overnight culture of LF82/Luciferase strain: Into two Falcon 50 mL tubes, add 20 mL of LB+20 μL of 50 mg/mL Kanamycin and inoculate with a loop from glycerol stock of the LF82/Luciferase strain. Incubate overnight at 37° C. with no shaking.
Glycoprotein coating of 96-well plates: Add 100 μL/well of 0.5-2 μg/mL BSA-(Man)3. 20 μg/mL BSA is used as the control background. Seal plate using an adhesive sealing film and incubate overnight at room temperature. Wash the 96-well plate three times with 150 μL/well of D-PBS, add 170 μL/well of blocking solution and incubate 45 min (minimum) at room temperature.
Preparation of bacterial suspension: Mix the two cultures tubes (40 mL) and perform a 1:10 dilution in LB (900 μl LB+100 μl culture. Measure optical density (OD) of the bacterial cultures. OD1 ˜5×10^8 cells/mL. Centrifuge LF82 culture for 20 min at 3500 rpm at room temperature. Re-suspend bacterial pellet in D-PBS and centrifuge again for 20 min at 3500 rpm. Re-suspend bacterial pellet in D-PBS to obtain a bacterial concentration of 2×10^9 bacteria/mL. Dilute 1/10 in D-PBS to obtain a final bacterial concentration of 2×10^8 bacteria/mL (=107 bacteria/50 μL). Perform 1/10 serial dilutions in LB of each bacterial suspension, plate 10 μL of dilutions on LB agar plates (final dilutions of 10^−7) and incubate overnight at 37° C. and count CFUs to determine the actual bacteria density in the assay.
Bacterial binding assay: Add 147 μL 2× binding buffer to compound plate (containing 3 μL of compound). After blocking step is performed (at least 45 min), wash plates three times with 200 μL/well of D-PBS. With a 100 μL multichannel manual pipettor, add 50 µL/well of compound diluted in 2× binding buffer. With a 100 μL multichannel manual pipettor, add 50 μL/well of bacterial suspension. Agitate at slow speed for 1 min and incubate 40-75 min at room temperature. Wash 5 times with 150 μL/well of washing buffer and then once with D-PBS. Add 100 μL/well of 1× Bright-Glo Luciferase substrate. […]

| Compound | IC50 |
| --- | --- |
| OC[C@H]1O[C@H](C#Cc2ccc(C#C[C@H]3O[C@H](CO)[C@@H](O)[C@H](O)[C@@H]3O)c3cnccc23)[C@@H](O)[C@@H](O)[C@@H]1O [Compound 130, (2R,3S,4R,5S,6R)-2-(hydroxymethyl)-6-[2-[8-[-2-[(2R,3S,4R,5S,6R)-3,4,5-trihydroxy-6-(hydroxymethyl)tetrahydropyran-2-yl]ethynyl]-5-isoquinolyl]ethynyl]tetrahydropyran-3,4,5-triol] | 67 nM |
| OC[C@H]1O[C@H](C#Cc2ccc(C#C[C@H]3O[C@H](CO)[C@@H](O)[C@H](O)[C@@H]3O)c(OCc3ccccc3)c2)[C@@H](O)[C@@H](O)[C@@H]1O [Compound 80, (2R,3S,4R,5S,6R)-2-[2-[3-benzyloxy-4-[2-[(2R,3S,4R,5S,6R)-3,4,5-trihydroxy-6-(hydroxymethyl)tetrahydropyran-2-yl]ethynyl]phenyl]ethynyl]-6-(hydroxymethyl)tetrahydropyran-3,4,5-triol] | 11 nM |
| OC[C@H]1O[C@H](C#Cc2ccc3nc(C#C[C@H]4O[C@H](CO)[C@@H](O)[C@H](O)[C@@H]4O)ncc3c2)[C@@H](O)[C@@H](O)[C@@H]1O [Compound 127, (2R,3S,4R,5S,6R)-2-(hydroxymethyl)-6-[2-[2-[2-[(2R,3S,4R,5S,6R)-3,4,5-trihydroxy-6-(hydroxymethyl)tetrahydropyran-2-yl]ethynyl]quinazolin-6-yl]ethynyl]tetrahydropyran-3,4,5-triol] | 43 nM |
| OCc1cc(C#C[C@H]2O[C@H](CO)[C@@H](O)[C@H](O)[C@@H]2O)ccc1C#C[C@H]1O[C@H](CO)[C@@H](O)[C@H](O)[C@@H]1O [Compound 95, (2R,3S,4R,5S,6R)-2-(hydroxymethyl)-6-[2-[3-(hydroxymethyl)-4-[2-[(2R,3S,4R,5S,6R)-3,4,5-trihydroxy-6-(hydroxymethyl)tetrahydropyran-2-yl]ethynyl]phenyl]ethynyl]tetrahydropyran-3,4,5-triol] | 38 nM |
| CCCCCCc1cc(C#C[C@H]2O[C@H](CO)[C@@H](O)[C@H](O)[C@@H]2O)c(CCCCCC)cc1C#C[C@H]1O[C@H](CO)[C@@H](O)[C@H](O)[C@@H]1O [Compound 82, (2R,3S,4R,5S,6R)-2-[2-[2,5-dihexyl-4-[2-[(2R,3S,4R,5S,6R)-3,4,5-trihydroxy-6-(hydroxymethyl)tetrahydropyran-2-yl]ethynyl]phenyl]ethynyl]-6-(hydroxymethyl)tetrahydropyran-3,4,5-triol] | 18 nM |
| Cc1cc(C#C[C@H]2O[C@H](CO)[C@@H](O)[C@H](O)[C@@H]2O)c(Cl)cc1C#C[C@H]1O[C@H](CO)[C@@H](O)[C@H](O)[C@@H]1O [Compound 90, (2R,3S,4R,5S,6R)-2-[2-[2-chloro-5-methy1-4-[2-[(2R,3S,4R,5S,6R)-3,4,5-trihydroxy-6-(hydroxymethyl)tetrahydropyran-2-yl]ethynyl]phenyl]ethynyl]-6-(hydroxymethyl)tetrahydropyran-3,4,5-triol] | 36 nM |
| COc1cc(-c2ccc([C@H]3O[C@H](CO)[C@@H](O)[C@H](O)[C@@H]3O)cc2)ccc1[C@H]1O[C@H](CO)[C@@H](O)[C@H](O)[C@@H]1O [Compound 151] | 185 nM |
| OC[C@H]1O[C@H](C#Cc2ccc(C#C[C@H]3O[C@H](CO)[C@@H](O)[C@H](O)[C@@H]3O)c(Cl)c2Cl)[C@@H](O)[C@@H](O)[C@@H]1O [Compound 75] | 76 nM |
| OC[C@H]1O[C@H](C#Cc2ccc3c4ccc(C#C[C@H]5O[C@H](CO)[C@@H](O)[C@H](O)[C@@H]5O)cc4n(CCN4CCOCC4)c3c2)[C@@H](O)[C@@H](O)[C@@H]1O [Compound 189, (2R,3S,4R,5S,6R)-2-(hydroxymethyl)-6-[2-[9-(2-morpholinoethyl)-7-[2-[(2R,3S,4R,5S,6R)-3,4,5-trihydroxy-6-(hydroxymethyl)tetrahydropyran-2-yl]ethynyl]carbazol-2-yl]ethynyl]tetrahydropyran-3,4,5-triol] | 7.8 nM |
| O=C1CC[C@H](C(=O)c2c(C#C[C@H]3O[C@H](CO)[C@@H](O)[C@H](O)[C@@H]3O)ccc3c2C2(CCNCC2)c2cc(C#C[C@H]4O[C@H](CO)[C@@H](O)[C@H](O)[C@@H]4O)ccc2-3)N1 [Compound 243, (5R)-5-[2,7-bis[2-[(2R,3S,4R,5S,6R)-3,4,5-trihydroxy-6-(hydroxymethyl)tetrahydropyran-2-yl]ethynyl]spiro[fluorene-9,4piperidine]-1carbonyl]pyrrolidin-2-one] | 0.22 nM |
| OC[C@H]1O[C@H](C#Cc2ccc3c(c2)C2(CCCCO2)c2cc(C#C[C@H]4O[C@H](CO)[C@@H](O)[C@H](O)[C@@H]4O)ccc2-3)[C@@H](O)[C@@H](O)[C@@H]1O (stereo partly drawn) [Compound 199] | 0.21 nM |
| [2H]C([2H])([2H])OCCn1c2cc(C#C[C@H]3O[C@H](CO)[C@@H](O)[C@H](O)[C@@H]3O)ccc2c2ccc(C#C[C@H]3O[C@H](CO)[C@@H](O)[C@H](O)[C@@H]3O)cc21 [Compound 183, (2R,3S,4R,5S,6R)-2-(Hydroxymethyl)-6-[2-[9-[2-(trideuteriomethoxy)ethyl]-7-[2-[(2R,3S,4R,5S,6R)-3,4,5-trihydroxy-6-(hydroxymethyl)tetrahydropyran-2-yl]ethynyl]carbazol-2-yl]ethynyl]tetrahydropyran-3,4,5-triol] | 0.76 nM |
| Cn1cc(C(=O)c2c(C#C[C@H]3O[C@H](CO)[C@@H](O)[C@H](O)[C@@H]3O)ccc3c2C2(CCNCC2)c2cc(C#C[C@H]4O[C@H](CO)[C@@H](O)[C@H](O)[C@@H]4O)ccc2-3)cn1 [Compound 245, [2,7-bis[2-[(2R,3S,4R,5S,6R)-3,4,5-trihydroxy-6-(hydroxymethyl)tetrahydropyran-2-yl]ethynyl]spiro[fluorene-9,4piperidine]-1yl]-(1-methylpyrazol-4-yl)methanone] | 0.14 nM |
| CCn1c2cc(C#C[C@H]3O[C@H](CO)[C@@H](O)[C@H](O)[C@@H]3O)ccc2c2ccc(C#C[C@H]3O[C@H](CO)[C@@H](O)[C@H](O)[C@@H]3O)cc21 [Compound 111, (2R,3S,4R,5S,6R)-2-[2-[9-ethyl-7-[2-[(2R,3S,4R,5S,6R)-3,4,5-trihydroxy-6-(hydroxymethyl)tetrahydropyran-2-yl]ethynyl]carbazol-2-yl]ethynyl]-6-(hydroxymethyl)tetrahydropyran-3,4,5-triol] | 2.1 nM |
| CN1CCC(n2c3cc(C#C[C@H]4O[C@H](CO)[C@@H](O)[C@H](O)[C@@H]4O)ccc3c3ccc(C#C[C@H]4O[C@H](CO)[C@@H](O)[C@H](O)[C@@H]4O)cc32)CC1 [Compound 187, (2R,3S,4R,5S,6R)-2-(hydroxymethyl)-6-[2-[9-(1-methyl-4-piperidyl)-7-[2-[(2R,3S,4R,5S,6R)-3,4,5-trihydroxy-6-(hydroxymethyl)tetrahydropyran-2-yl]ethynyl]carbazol-2-yl]ethynyl]tetrahydropyran-3,4,5-triol] | 1 nM |
